Data reported in patent publication US20250012799A1, “SARS-COV-2 POLYPEPTIDES AND USES THEREOF” (IAMA FRANCE, priority 2021, published 2025).
Read-outs that look alike come from different tables or passages of the source.

Key:
[1] = tested on: NKp44L membrane expression on Calu-3 cells; assay type: cell-based, human; details: for Induction of NKp44L membrane expression: Calu-3, individual peptides/pools of sub-pools no 8.2 and no 8.3; for induction of the expression of NKp44L (in words): Calu-3 lung cell line
[2] = tested on: NKp44L membrane expression on A549: hu ACE-2 cells; assay type: cell-based, human; details: for Induction of NKp44L membrane expression: A549, individual peptides/pools of sub-pools no 8.2 and no 8.3; for induction of the expression of NKp44L (in words): A549: hu ACE-2 lung cell line

Row | Substance | Induction of NKp44L membrane expression ([1]; Experiment no 1) | Induction of NKp44L membrane expression ([1]; Experiment no 2) | Induction of NKp44L membrane expression ([1]; Experiment no 3) | Induction of NKp44L membrane expression ([2]; Experiment no 1) | Induction of NKp44L membrane expression ([2]; Experiment no 2) | Induction of NKp44L membrane expression ([2]; Experiment no 3) | induction of the expression of NKp44L (in words) [1] | induction of the expression of NKp44L (in words) [2]
1 | igvtqnvlyenqklianq [Spi228] | 91 | 103 | 117 | 75 | 82 | 89 |  | 
2 | klianqfnsaigkiqdsl [Spi231] | 2250 | 2406 | 2207 | 1308 | 1232 | 1199 | induce the expression of NKp44L | induce the expression of NKp44L
3 | nqfnsaigkiqdslssta [Spi232] | 421 | 301 | 412 | 101 | 127 | 148 |  | 
4 | qmayrfngigvtqnvlye [Spi226] | 103 | 112 | 119 | 53 | 59 | 71 |  | 
5 | qnvlyenqkliangfnsa [Spi229] | 2103 | 1889 | 1875 | 1167 | 1021 | 993 | induce the expression of NKp44L | induce the expression of NKp44L
6 | rfngigvtqnvlyengkl [Spi227] | 2507 | 2726 | 2592 | 1402 | 1517 | 1538 | induce the expression of NKp44L | induce the expression of NKp44L
7 | yenqklianqfnsaigki [Spi230] | 2213 | 2403 | 2173 | 1202 | 1198 | 1195 | induce the expression of NKp44L | induce the expression of NKp44L
